{"source": "EPA's ToxValDB 9.5 (doi:10.2903/j.efsa.2015.4060)", "key": {"Apis mellifera": {"test_system": "Apis mellifera", "details": "acute, mortality"}, "Canidae": {"test_system": "Canidae", "details": "chronic; duration: 53 weeks; oral; Dog Other; organ weight"}, "Daphnia magna": {"test_system": "Daphnia magna", "details": "chronic/long-term; duration: 21 days; reproduction"}, "Folsomia candida": {"test_system": "Folsomia candida", "details": "chronic/long-term; duration: 28 days"}, "Hypoaspis aculeifer": {"test_system": "Hypoaspis aculeifer", "details": "chronic/long-term; duration: 14 days"}, "Lepomis macrochirus": {"test_system": "Lepomis macrochirus", "details": "acute; duration: 96 hours; mortality"}, "Oncorhynchus mykiss": {"test_system": "Oncorhynchus mykiss", "details": "chronic/long-term; duration: 88 days; other"}}, "data": [{"smiles": "Cc1ccc(C(C)NC(=O)[C@@H](NC(=O)OC(C)C)C(C)C)cc1", "note": "(stereo not given in full) [Iprovalicarb]", "values": [{"measurement": "LD50", "setting": "Apis mellifera; dermal", "value": "> 200", "unit": "µg/piece"}, {"measurement": "LD50", "setting": "Apis mellifera; oral, unspecified", "value": "> 199", "unit": "µg/piece"}, {"measurement": "LOAEL", "setting": "Canidae", "value": 3, "unit": "mg/kg-day"}, {"measurement": "LD50", "setting": "Colinus virginianus; acute, oral", "value": "> 2000", "unit": "mg/kg-day"}, {"measurement": "LC50", "setting": "Colinus virginianus; acute, oral, diet", "value": "> 1350", "unit": "mg/kg-day"}, {"measurement": "NOAEL", "setting": "Colinus virginianus; reproduction developmental", "value": 161, "unit": "mg/kg-day"}, {"measurement": "NOEC", "setting": "Daphnia magna", "value": 1.89, "unit": "mg/L"}, {"measurement": "NOEC", "setting": "Folsomia candida", "value": "≥ 1000", "unit": "mg/kg"}, {"measurement": "NOEC", "setting": "Hypoaspis aculeifer", "value": "≥ 1000", "unit": "mg/kg"}, {"measurement": "LC50", "setting": "Lepomis macrochirus", "value": "> 20.7", "unit": "µg/mL"}, {"measurement": "NOEC", "setting": "Oncorhynchus mykiss", "value": 5, "unit": "mg/L"}, {"measurement": "LD50", "setting": "Rattus norvegicus; acute, oral, mortality", "value": "> 5000", "unit": "mg/kg-day"}, {"measurement": "NOAEL", "setting": "Rattus norvegicus; chronic", "value": 146, "unit": "mg/kg-day"}, {"measurement": "LC50", "setting": "Tagia sp.; acute, duration: 14 days, mortality", "value": "> 500", "unit": "mg/kg"}, {"measurement": "NOEC", "setting": "Tagia sp.; chronic/long-term, duration: 8 weeks", "value": "≥ 64", "unit": "mg/kg"}]}]}
